The text below walks through data of ChEMBL document CHEMBL5223116, “Combination of NSAIDs with donepezil as multi-target directed ligands for the treatment of Alzheimer's disease” (Bioorg Med Chem Lett, 2022).

The pIC50 is the negative decadic logarithm of the IC50, by convention in mol/L.

In data set [1] the target is T1, Cholinesterase (Homo sapiens, UniProt P06276). Put plainly: Inhibition of BChE (unknown origin) by Ellman's method. On the technique in general: DTNB colorimetry detects thiols as they appear.
T1 sequence (P06276 whole entry): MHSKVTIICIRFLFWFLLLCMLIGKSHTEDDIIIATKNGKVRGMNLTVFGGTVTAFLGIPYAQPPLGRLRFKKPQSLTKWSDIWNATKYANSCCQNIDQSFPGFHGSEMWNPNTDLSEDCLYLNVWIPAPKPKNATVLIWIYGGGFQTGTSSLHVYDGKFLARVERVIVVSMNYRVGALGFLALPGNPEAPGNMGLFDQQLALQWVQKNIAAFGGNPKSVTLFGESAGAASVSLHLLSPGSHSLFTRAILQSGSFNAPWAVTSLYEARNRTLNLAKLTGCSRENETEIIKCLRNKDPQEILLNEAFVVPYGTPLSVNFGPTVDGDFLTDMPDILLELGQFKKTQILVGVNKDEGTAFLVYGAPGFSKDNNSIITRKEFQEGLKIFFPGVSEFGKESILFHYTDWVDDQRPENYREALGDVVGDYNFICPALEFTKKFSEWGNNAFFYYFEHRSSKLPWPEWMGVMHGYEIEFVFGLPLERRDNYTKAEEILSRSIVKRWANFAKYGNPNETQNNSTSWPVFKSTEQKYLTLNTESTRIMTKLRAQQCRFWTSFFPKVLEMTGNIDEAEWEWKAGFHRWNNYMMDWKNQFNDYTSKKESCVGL
The target in data set [2] is T2, Acetylcholinesterase (Homo sapiens, UniProt P22303). Put plainly: Inhibition of AChE (unknown origin) by Ellman's method.
T2 sequence (P22303 whole entry): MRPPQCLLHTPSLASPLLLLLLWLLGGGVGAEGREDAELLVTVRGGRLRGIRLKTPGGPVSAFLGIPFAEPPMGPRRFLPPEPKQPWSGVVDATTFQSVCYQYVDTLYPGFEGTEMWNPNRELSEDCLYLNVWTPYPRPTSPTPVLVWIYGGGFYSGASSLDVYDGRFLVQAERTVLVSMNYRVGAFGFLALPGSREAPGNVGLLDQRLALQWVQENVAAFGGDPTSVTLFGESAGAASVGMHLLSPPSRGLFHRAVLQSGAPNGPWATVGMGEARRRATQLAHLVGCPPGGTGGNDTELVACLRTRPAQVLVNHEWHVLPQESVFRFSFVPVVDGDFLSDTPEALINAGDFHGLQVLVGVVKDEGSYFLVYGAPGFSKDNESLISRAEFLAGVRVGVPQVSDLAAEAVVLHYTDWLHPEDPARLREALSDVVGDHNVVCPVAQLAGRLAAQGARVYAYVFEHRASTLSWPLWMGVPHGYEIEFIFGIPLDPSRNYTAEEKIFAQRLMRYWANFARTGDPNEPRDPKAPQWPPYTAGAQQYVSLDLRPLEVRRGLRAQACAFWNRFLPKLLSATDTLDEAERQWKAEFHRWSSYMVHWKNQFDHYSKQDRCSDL
Data set [3] has as its target T1, Cholinesterase. Put plainly: Inhibition of BChE (unknown origin) at 10 uM by Ellman's method.
Data set [4] deals with T2, Acetylcholinesterase. Put plainly: Inhibition of AChE (unknown origin) at 10 uM by Ellman's method.
For data set [5], the system named is BV-2. Put plainly: Antiinflammatory activity in mouse BV-2 cells assessed as decrease in LPS-induced TNFalpha secretion at 5 uM preincubated for 6 hrs followed by LPS stimulation and measured after 24 hrs by qRT-PCR analysis (reference value: 3.91). Format: functional. The note with it: time 30 hrs. In general terms: Real-time PCR tracks product formation cycle by cycle.

Data set [6] addresses T1, Cholinesterase. Put plainly: Potency index, ratio of donepezil IC50 to test compound IC50 for BChE (unknown origin).
The nature of data set [7]: Stability of compound in PBS at pH 7.4 measured after 48 hrs by HPLC analysis. It counts as physicochemical. The note with it: buffer, pH 7.4, 48 h.
Data set [8] concerns the target Prostaglandin G/H synthase 1 (Homo sapiens) (UniProt P23219). The experiment in a line: Inhibition of COX-1 (unknown origin) by enzyme immunoassay.
Data set [9] deals with BV-2. Put plainly: Antiinflammatory activity in mouse BV-2 cells assessed as decrease in LPS-induced IL-1beta secretion at 10 uM preincubated for 6 hrs followed by LPS stimulation and measured after 24 hrs by qRT-PCR analysis (reference value: 3.76). It counts as functional. The note with it: time 30 hrs.
For data set [10], the system named is PC-3. The experiment in a line: Neuroprotective activity against Abeta42-induced cell death in […] cells by MTT assay. It counts as functional, cell-based. The note with it: dose 0.1-10 µM.
For data set [11], the system named is BV-2. The experiment in a line: Antiinflammatory activity in mouse BV-2 cells assessed as decrease in LPS-induced TNFalpha secretion at 10 uM preincubated for 6 hrs followed by LPS stimulation and measured after 24 hrs by qRT-PCR analysis (reference value: 3.91). Format: functional. To be noted: time 30 hrs.
The test system of data set [12] is PC-3. The experiment in a line: Cytotoxicity against […] cells assessed as reduction in cell viability at 0.1 to 10 uM by MTT assay. Format: toxicity, cell-based. The note with it: dose 0.1-10 µM. Background: Formazan colour is commonly taken as a measure of viable cells.
Data set [13] has as its system BV-2. The experiment in a line: Antiinflammatory activity in mouse BV-2 cells assessed as decrease in LPS-induced IL-1beta secretion at 5 uM preincubated for 6 hrs followed by LPS stimulation and measured after 24 hrs by qRT-PCR analysis (reference value: 3.76). It counts as functional. The note with it: time 30 hrs.
Data set [14] deals with T3, Prostaglandin G/H synthase 2 (Homo sapiens) (UniProt P35354).
T3 sequence (whole entry): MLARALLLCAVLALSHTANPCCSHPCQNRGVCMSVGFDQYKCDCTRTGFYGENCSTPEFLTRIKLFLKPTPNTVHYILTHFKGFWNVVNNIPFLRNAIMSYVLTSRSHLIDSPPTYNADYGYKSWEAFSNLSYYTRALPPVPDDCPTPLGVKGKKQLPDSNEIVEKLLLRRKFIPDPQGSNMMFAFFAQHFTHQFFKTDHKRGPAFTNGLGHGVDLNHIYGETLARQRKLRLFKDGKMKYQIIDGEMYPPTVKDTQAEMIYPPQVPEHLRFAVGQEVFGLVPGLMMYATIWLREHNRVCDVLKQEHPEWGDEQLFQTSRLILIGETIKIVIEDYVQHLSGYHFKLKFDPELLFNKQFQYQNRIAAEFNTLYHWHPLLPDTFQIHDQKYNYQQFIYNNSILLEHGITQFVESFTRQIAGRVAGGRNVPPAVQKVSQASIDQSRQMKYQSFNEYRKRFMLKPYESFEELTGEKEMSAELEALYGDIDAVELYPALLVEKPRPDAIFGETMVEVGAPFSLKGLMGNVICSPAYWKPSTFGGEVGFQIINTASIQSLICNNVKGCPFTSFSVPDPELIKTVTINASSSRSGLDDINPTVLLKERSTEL
The experiment in a line: Inhibition of COX-2 (unknown origin) by enzyme immunoassay.

pIC50: −log10 of the molar value. Activity calls are given as the source filed them. The rule behind the calls is not given here.

Sequence of Prostaglandin G/H synthase 1 (Homo sapiens) (P23219 whole entry): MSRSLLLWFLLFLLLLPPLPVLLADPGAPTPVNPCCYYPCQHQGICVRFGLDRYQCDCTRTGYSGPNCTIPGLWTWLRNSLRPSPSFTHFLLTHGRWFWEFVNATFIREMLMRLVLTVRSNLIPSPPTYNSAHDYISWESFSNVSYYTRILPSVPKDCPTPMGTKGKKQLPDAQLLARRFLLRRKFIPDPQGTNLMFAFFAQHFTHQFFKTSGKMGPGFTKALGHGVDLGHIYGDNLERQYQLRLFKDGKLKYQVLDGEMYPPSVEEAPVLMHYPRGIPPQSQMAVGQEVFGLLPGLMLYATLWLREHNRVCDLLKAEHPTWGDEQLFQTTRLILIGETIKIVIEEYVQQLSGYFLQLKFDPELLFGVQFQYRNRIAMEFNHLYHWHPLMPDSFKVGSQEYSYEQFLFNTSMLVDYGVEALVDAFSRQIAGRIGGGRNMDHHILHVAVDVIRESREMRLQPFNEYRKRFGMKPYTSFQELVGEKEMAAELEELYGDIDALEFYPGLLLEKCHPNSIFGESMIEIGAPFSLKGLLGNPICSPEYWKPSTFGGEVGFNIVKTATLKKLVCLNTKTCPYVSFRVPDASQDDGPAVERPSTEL

With `COc1cc2c(cc1OC)/C(=N\NC(=O)CNC(=O)C(C)c1ccc(CC(C)C)cc1)C(CC1CCN(Cc3ccccc3)CC1)C2` (centres undefined), the pIC50 is 5.79 against Cholinesterase [1] and 5.92 against Acetylcholinesterase [2].
The corresponding values for `COc1cc2c(cc1OC)/C(=N\NC(=O)CCNC(=O)C(C)c1ccc(CC(C)C)cc1)C(CC1CCN(Cc3ccccc3)CC1)C2` (centres undefined) are 4.94 and 5.31.
Regarding `COc1cc2c(cc1OC)/C(=N\NC(=O)c1ccccc1OC(C)=O)C(CC1CCN(Cc3ccccc3)CC1)C2` (centres undefined), the results for the pIC50 on Cholinesterase [1] and at Acetylcholinesterase [2] were 6.10 and 7.34, respectively.
For the compound `COc1cc2c(cc1OC)/C(=N\NC(=O)C(CC(C)C)NC(=O)C(C)c1ccc(CC(C)C)cc1)C(CC1CCN(Cc3ccccc3)CC1)C2` (centres undefined), the pIC50 against Cholinesterase [1] was 4.70; at Acetylcholinesterase [2], 6.46.
Regarding `CC(C)Cc1ccc(C(C)C(=O)O)cc1` (centres undefined), the inhibition entry at Cholinesterase [3] and on Acetylcholinesterase [4] was “inactive” each time.
Turning to `COc1ccc2c(c1)c(CC(=O)N/N=C1\c3cc(OC)c(OC)cc3CC1CC1CCN(Cc3ccccc3)CC1)c(C)n2C(=O)c1ccc(Cl)cc1` (centres undefined), the figures for the pIC50 on Cholinesterase [1] and on Acetylcholinesterase [2] were 5.07 and 6.29, respectively.
Regarding `COc1cc2c(cc1OC)/C(=N\N)C(CC1CCN(Cc3ccccc3)CC1)C2` (centres undefined), the values for the pIC50 against Cholinesterase [1] and against Acetylcholinesterase [2] were 5.60 and 6.72, respectively.
On the same counts, the results for `COc1cc2c(cc1OC)/C(=N\NC(=O)C(NC(=O)C(C)c1ccc(CC(C)C)cc1)C(C)C)C(CC1CCN(Cc3ccccc3)CC1)C2` (centres undefined) are 5.49 and 6.40.
For `COc1ccc2c(c1)c(CC(=O)O)c(C)n2C(=O)c1ccc(Cl)cc1`, the inhibition result at Cholinesterase [3] and on Acetylcholinesterase [4] was “inactive” each time.
`CC(=O)Oc1ccccc1C(=O)O`: the inhibition result at Cholinesterase [3] and on Acetylcholinesterase [4] was “inactive” each time.
`COc1ccc2cc([C@H](C)C(=O)N/N=C3\c4cc(OC)c(OC)cc4CC3CC3CCN(Cc4ccccc4)CC3)ccc2c1` (some centres undefined): the pIC50 on Cholinesterase [1] was 6.06; against Acetylcholinesterase [2] it was 6.82.
Take `COc1cc2c(cc1OC)/C(=N\NC(=O)C(C)c1ccc(CC(C)C)cc1)C(CC1CCN(Cc3ccccc3)CC1)C2` (centres undefined): the Activity was 1.51 in the data set with BV-2 [5]; 0.78 with BV-2 [9]; “Dose-Dependent Effect” with PC-3 [10]; 1.12 with BV-2 [11]; “Non-Toxic” with PC-3 [12]; 1.19 in the data set with BV-2 [13]. In addition, the Ratio IC50 on Cholinesterase [6] turned out to be 5. The Stability result in data set [7] was “Stable”. Also, the inhibition result in data set [8] and in data set [14] was “Dose-Dependent Effect” throughout. The pIC50 against Cholinesterase [1] is 6.10; against Acetylcholinesterase [2], 7.82.
